“And” between values parts separate entries of the source, which are not always exact repeats. Identical values can stand only once. “Also recorded” adds a separate entry of the source.
Tests used:
[1] = Survival after lethal irradiation and bone marrow transplantation; assay type: in vivo
Method: To protect from kidney damage, mice were simultaneously subcutaneously (s.c.) injected with 1 mL of saline solution.
(§1) To induce acute peripheral sympathectomy, mice received two i.p. injections of 60HDA (Sigma; 100 mg/kg on day 0; 250 mg/kg on day 2). Three days after the last injection of 60HDA mice were euthanized for analysis, transplanted (see below) or injected with 5-fluorouracil (see below).
Mice were irradiated (1,200 cGy, two split doses, 3 hours apart) in a Cesium Mark 1 irradiator (JL Shepperd & associates). Three hours later, the indicated number of BMNCs was injected retroorbitally in the irradiated recipients under isoflurane (Phoenix Pharmaceuticals) anesthesia. Mice were allowed to recover and analyzed at the indicated time points.
(§2) To induce neuroprotection from 60HDA, mice were injected with 4-MC (10 μg/kg; i.p.) or GDNF-Fc (5 μg per mice; s.c.) for 5 days, starting the treatment the same day as the first injection of 60HDA.

bone marrow [2] = assay: Bone marrow hematopoietic recovery after transplantation (BMNC, CFU-C, Lin-Sca1+c-kit+flt3- cells); assay type: in vivo, mice; settings: for hematopoietic recovery in BM after transplantation (progenitors, Lin-Sca1+c-kit+flt3- cells, total BM): about 4 weeks / 30 days post-transplantation, vs saline
Method: Mice were irradiated (1,200 cGy, two split doses, 3 hours apart) in a Cesium Mark 1 irradiator (JL Shepperd & associates). Three hours later, the indicated number of BMNCs was injected retroorbitally in the irradiated recipients under isoflurane (Phoenix Pharmaceuticals) anesthesia. Mice were allowed to recover and analyzed at the indicated time points. […]
(§3) Blood was harvested by retro-orbital sampling of mice anesthetized with isoflurane and collected in polypropylene tubes containing ethylenediaminetetraacetic acid (EDTA). Blood parameters were determined with an AcT differential counter (Beckman-Coulter). CFU-C assays were performed as described in He et al., Ann. Rev. Cell. Dev. Biol. 25:377 (2009), incorporated herein by reference. For flow cytometry, red blood cells were lysed thrice for 5 minutes at 4° C. in 0.15 M NH4Cl, cells were washed once in ice-cold PBS and counted in a hemocytometer. To determine Lin^−Sca1^+c-kit^+ or Lin^−Sca1^+c-kit^+ft13^− numbers, 10^6 cells were stained with the Mouse Lineage Panel (BD Biosciences) together with FITC-conjugated anti-Sca-1 antibody (BD Biosciences), PE-Cy7-conjugated anti-c-kit antibody (eBioscience) and PE-conjugated anti-flt3 antibody (eBioscience). Cells were further stained with streptavidin-Cy5 (Jackson Immunotech) and analyzed with a BD LSR11 system (BD Biosciences). Bone marrow was harvested by flushing the bone with 1 mL of ice-cold PBS, red blood cells were lysed once for 5 minutes at 4° C. in 0.15 M NH4Cl, cells were washed once in ice-cold PBS and counted with a hemocytometer. CFU-C and Lin^−Sca1^+c-kit^+ft13^− numbers were determined as above. In some experiments, CD150^+CD48^− cell numbers were determined by staining 5×10^6 cells with PE-anti-CD48 antibody (BD Biosciences) and PE-Cy7-anti-CD150 antibody (Biolegend).

[3] = Survival after 5FU injection in 60HDA-sympathectomized mice; assay type: in vivo
Method: as §1
(§4) To induce bone marrow ablation and force quiescent HSC to proliferate, 5FU (250 mg/kg; Sigma) was injected i.v. under isoflurane (Phoenix Pharmaceuticals) anesthesia. Mice were allowed to recover and analyzed at the indicated time points.
as §2

bone marrow [4] = assay: Bone marrow regeneration after 5FU (or sublethal irradiation) in 60HDA-sympathectomized mice; assay type: in vivo
Method: as §1, §4, §2, §3

Nestin+ niche cells = assay: HSC niche cell analyses (Nestin+ cells, osteoblasts, endothelial cells, macrophages, α-SMA+ cells); assay type: in vivo
Text: Since the SNS directs HSC trafficking by acting on Nestin^+ niche cells through the β3 adrenergic receptor, the changes that occurred in the HSC niche after SNS injury and genotoxic insult were investigated. […] The reason for reduced Nestin^+ numbers in SNS-injured mice during BM recovery was then investigated.

TH+ fibers = assay: Immunofluorescence quantification of TH+ sympathetic fibers in bone marrow / calvaria
Method: Bones were collected and fixed for 1 hour in 4% paraformaldehyde (PFA) in PBS (Electron Microscopy Sciences) at 4° C. They were then post-fixed overnight in 1% PFA in PBS at 4° C. and cryoprotected for 24 hours in 30% sucrose. Bones were then included in OCT (Tissue Tek), sectioned (14 μm sections) in a Cryostat, and mounted on CFSA 4× Slides (Leica). TH^+ immunofluorescence staining was performed as previously described in Mendez-Ferrer, et al., Nature 452:442 (2008), incorporated herein by reference. For each mouse analyzed, the number of nerve fibers in 6 fields was quantified and plotted as per mm^2. For whole-mount immunofluorescence, calvaria were harvested by cutting along the temporal lines of the skull and immediately fixed in methanol. Bone tissues were blocked/permeabilized in PBS containing 20% FCS and 0.5% Triton and stained with APC-conjugated anti-PECAM CD31 antibody and TH (Millipore). Signal amplification for TH staining was achieved by using a signal amplification kit (Perkin Elmer). Whole-mount tissues were imaged face-down on an upright Olympus BX61WI microscope. The area between the frontal and parietal bones was identified by moving along the coronal suture and images were obtained from the same area for all mice, along the coronal vein on either side of the central vein. The numbers of individual nerve fibers running alongside blood vessels were quantified and plotted as per 100 μm vessel segment. All images were processed using Slidebook software (Intelligent Imaging Innovations, Inc.).

bone marrow [5] = assay: Steady-state bone marrow analysis after cisplatin or 60HDA treatment; assay type: in vivo, mice; settings: 3 days after last 60HDA injection
Method: To protect from kidney damage, mice were simultaneously subcutaneously (s.c.) injected with 1 mL of saline solution. Four weeks after the last injection of cisplatin, mice were euthanized for analysis, transplanted (see below) or mobilized with granulocyte colony-stimulating factor (G-CSF, see below).
as §1
Blood was harvested by retro-orbital sampling of mice anesthetized with isoflurane and collected in polypropylene tubes containing ethylenediaminetetraacetic acid (EDTA). Blood parameters were determined with an AcT differential counter (Beckman-Coulter). […] For flow cytometry, red blood cells were lysed thrice for 5 minutes at 4° C. in 0.15 M NH4Cl, cells were washed once in ice-cold PBS and counted in a hemocytometer. […] Cells were further stained with streptavidin-Cy5 (Jackson Immunotech) and analyzed with a BD LSR11 system (BD Biosciences). Bone marrow was harvested by flushing the bone with 1 mL of ice-cold PBS, red blood cells were lysed once for 5 minutes at 4° C. in 0.15 M NH4Cl, cells were washed once in ice-cold PBS and counted with a hemocytometer. […]

bone marrow [6] = assay: CFU-C homing efficiency to bone marrow; assay type: in vivo; settings: compared to control mice, 24 hours after irradiation and BMNC injection
[7] = Complete blood counts of moribund 6OHDA-treated mice after 5FU; assay type: in vivo; settings: for CH / CHCM / HDW / HCT / Hgb / MCH / MCHC / RDW: moribund 6OHOA-treated mouse
Method: as §1, §4, §3

β3 adrenergic receptors = target: T1, β3 adrenergic receptors (Mus musculus, UniProt P25962); assay: β3 adrenergic blockade during 5FU-induced BM regeneration; assay type: in vivo, mice
T1 construct: β3 adrenergic receptors expressed by niche cells; from tissue; host or cells: live mice (wild-type or Adrb2-/-); receptor expressed by bone marrow niche cells
T1 sequence (P25962 whole entry): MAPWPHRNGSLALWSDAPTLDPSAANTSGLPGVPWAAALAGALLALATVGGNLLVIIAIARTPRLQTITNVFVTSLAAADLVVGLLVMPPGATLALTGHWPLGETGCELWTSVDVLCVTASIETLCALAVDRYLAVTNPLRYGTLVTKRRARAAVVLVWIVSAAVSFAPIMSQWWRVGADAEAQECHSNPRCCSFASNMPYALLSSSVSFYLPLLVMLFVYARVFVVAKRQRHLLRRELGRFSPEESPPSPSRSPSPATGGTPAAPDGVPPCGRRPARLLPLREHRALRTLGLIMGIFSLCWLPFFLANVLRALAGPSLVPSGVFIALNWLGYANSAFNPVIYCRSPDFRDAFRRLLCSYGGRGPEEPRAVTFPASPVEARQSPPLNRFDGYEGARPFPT
Method: as §4
To investigate the role of β2 or β3 adrenergic receptors in bone marrow regeneration, β3 adrenergic signaling was blocked in wild-type or Adrb2^tm1Bkk/J mice by injecting the β3-specific antagonist SR59230A (5 mg/kg, i.p.; Sigma), daily for 3 days.

[8] = 60HDA-lesioned mice plus agent, 12 days after 5FU
[9] = cisplatin-treated mice plus 4-MC
[10] = 60HDA-treated mice, eight days after 5FU
[11] = 10 days after 5FU (250 mg/kg), listed as 6OHOA

SMILES: Cc1ccc(O)c(O)c1 [4-MC, 4-methylcatechol]
- survival after transplantation with neuroprotective agent ([1]; cisplatin-treated mice plus agent): no death was observed; also recorded: completely abolished transplant-associated death; also recorded: completely prevented neuropathy-induced death
- HSC frequency and absolute numbers (LTC-IC, competitive repopulation assays) (bone marrow [2]; cisplatin-treated mice plus 4-MC, after transplantation): higher frequency and absolute numbers of HSC
- bone marrow regeneration after transplantation with neuroprotective agent (BM cellularity, progenitor counts, LSKF cells) (bone marrow [2]; cisplatin-treated mice plus agent, one month after transplantation): accelerated bone marrow regeneration; also recorded: significantly improves hematopoietic cell counts
- survival after 5FU with neuroprotective agent ([3]; 60HDA-lesioned mice plus agent): completely protected from death; also recorded: completely abolished 5FU-associated cell death
- HSC recovery by competitive repopulation assays (bone marrow [4]; 60HDA-lesioned mice plus 4-MC, after 5FU): significant increase in HSC recovery
- hematopoietic recovery after 5FU with neuroprotective agent (BM, LSKF cells) (bone marrow [4]; [8]): increased hematopoietic recovery; also recorded: significantly increased
- BM recovery after 5FU in Tα1-Cre:TrkANeo/Neo mice (bone marrow [4]; sympathectomized mice treated with 4-MC, TrkA restricted to nervous system): recovery comparable to that of wild-type mice
- Nestin+ cell number 12 days after 5FU (Nestin+ niche cells; 60HDA mice plus 4-MC): restored normal Nestin^+ cell number
- SNS-injury-induced expansion of Nestin+ cells and osteoblasts prior to 5FU (Nestin+ niche cells; 60HDA mice plus 4-MC): abolished the expansion
- other niche cells (endothelial cells, BM macrophages, perivascular α-SMA cells) (Nestin+ niche cells; 60HDA mice plus 4-MC, before or after 5FU): did not affect other niche cells
- endothelial cells, BM macrophages, perivascular α-SMA+ cells before BMT (Nestin+ niche cells; [9]): without affecting
- expansion in Nestin+ cells and osteoblasts before BMT (Nestin+ niche cells; [9]): ameliorated the expansion
- TH+ / SNS fiber recovery (TH+ fibers; [8]): induced TH^+ fiber recovery; also recorded: significant recovery in the number of BM SNS fibers; also recorded: protects sympathetic fibers
- increase in bone marrow TH+ fiber density (TH+ fibers; cisplatin+4-MC compared to cisplatin+saline, p<0.05): 2 fold

SMILES: N.N.O=C([O-])C1(C(=O)[O-])CCC1.[Pt+2] [carboplatin]
- hematopoietic recovery in BM after transplantation (progenitors, Lin-Sca1+c-kit+flt3- cells, total BM) (bone marrow [2]): not

SMILES: NCCc1cc(O)c(O)cc1O [60HDA, 6-hydroxydopamine]
- BM cellularity, CFU-C, Lin-Sca1+c-kit+flt3-, CD48-CD150+ cell numbers, Lin-Sca1+c-kit+ cell cycling (bone marrow [5]): did not alter; also recorded: does not induce significant changes
- mortality after transplantation ([1]; lethally irradiated, transplanted with wild-type BMNC): significant increase in mortality
- hematopoietic recovery in BM after transplantation (progenitors, Lin-Sca1+c-kit+flt3- cells, total BM) (bone marrow [2]): significant reductions in hematopoietic recovery; also recorded: delayed hematopoietic recovery
- survival after 5FU ([3]; 60HDA-sympathectomized vs saline mice): dramatically reduced their survival
- hematopoietic recovery after 5FU (bone marrow [4]; 60HDA-sympathectomized mice, day 12): significantly impaired hematopoietic recovery
- BM recovery after sublethal irradiation (bone marrow [4]; 60HDA-treated mice, 12 days after irradiation): Reduced BM recovery
- Lin-Sca1+c-kit+flt3- cell expansion after 5FU (bone marrow [4]; 60HDA-treated mice, days 4 to 12): blunted
- LSK cell proliferation (bone marrow [4]; [10]): increased proliferation
- LSK cell viability (bone marrow [4]; [10]): reduced viability
- CFU-C homing efficiency (bone marrow [6]): No differences; also recorded: No defect
- Nestin+ cell death (apoptosis) (Nestin+ niche cells; 60HDA mice, 24 hours after 5FU): significant increase
- endothelial cells, BM monocyte/macrophages, α-SMA+ perivascular cells 12 days after 5FU (Nestin+ niche cells; 60HDA- vs saline-treated mice): failed to detect differences
- Nestin+ cell numbers 12 days after 5FU (Nestin+ niche cells; 60HDA-sympathectomized mice): severe deficit
- endothelial cells, osteoblasts, CD68+ cells, α-SMA+ perivascular cells by immunofluorescence prior to 5FU (Nestin+ niche cells; 60HDA-treated vs saline mice): did not reveal differences
- number of Nestin+ cells prior to 5FU (Nestin+ niche cells; 60HDA-treated vs saline mice): significant increase
- osteoblast numbers prior to 5FU (Nestin+ niche cells; 60HDA-treated vs saline mice): slightly increased
- cause of reduced survival after 5FU ([7]; 60HDA-sympathectomized mice): BM failure
- CH ([7]; 8 days after 5FU (250 mg/kg)): 13.3 pg and 12.8 pg and 12.9 pg
- CHCM ([7]; 8 days after 5FU (250 mg/kg)): 32.8 g·dL and 31.8 g·dL and 31.2 g·dL
- HDW ([7]; 8 days after 5FU (250 mg/kg)): 2.34 g·dL and 1.78 g·dL and 1.74 g·dL
- CH ([7]; 9 days after 5FU (250 mg/kg)): 13.5 pg
- CHCM ([7]; 9 days after 5FU (250 mg/kg)): 33.7 g·dL and 33 g·dL
- HCT ([7]; 9 days after 5FU (250 mg/kg)): 11
- HDW ([7]; 9 days after 5FU (250 mg/kg)): 2.27 g·dL and 2.34 g·dL
- Hgb ([7]; 9 days after 5FU (250 mg/kg)): 3 g·dL
- MCH ([7]; 9 days after 5FU (250 mg/kg)): 9.7 pg and 9.1 pg
- MCHC ([7]; 9 days after 5FU (250 mg/kg)): 24.3 g·dL and 22.3 g·dL
- RDW ([7]; 9 days after 5FU (250 mg/kg)): 12.5 and 12.6
- CH [7, 11]: 12.8 pg and 12.9 pg
- CHCM [7, 11]: 29.3 g·dL and 30.5 g·dL
- HCT [7, 11]: 13 and 10
- HDW [7, 11]: 1.67 g·dL and 2.03 g·dL
- Hgb [7, 11]: 4 g·dL and 6 g·dL
- MCH [7, 11]: 12.8 pg and 18.9 pg
- MCHC [7, 11]: 29.3 g·dL and 44.4 g·dL
- RDW [7, 11]: 12.2 and 13.2
- CH ([7]; 11 days after 5FU (250 mg/kg)): 13.2 pg
- CHCM ([7]; 11 days after 5FU (250 mg/kg)): 30.7 g·dL
- HCT ([7]; 11 days after 5FU (250 mg/kg)): 14
- HDW ([7]; 11 days after 5FU (250 mg/kg)): 1.95 g·dL
- Hgb ([7]; 11 days after 5FU (250 mg/kg)): 3 g·dL
- MCH ([7]; 11 days after 5FU (250 mg/kg)): 10.5 pg
- MCHC ([7]; 11 days after 5FU (250 mg/kg)): 24.3 g·dL
- RDW ([7]; 11 days after 5FU (250 mg/kg)): 11.3
- CH ([7]; 12 days after 5FU (250 mg/kg)): 12.6 pg
- CHCM ([7]; 12 days after 5FU (250 mg/kg)): 31.1 g·dL
- HCT ([7]; 12 days after 5FU (250 mg/kg)): 15
- HDW ([7]; 12 days after 5FU (250 mg/kg)): 2.31 g·dL
- Hgb ([7]; 12 days after 5FU (250 mg/kg)): 3 g·dL
- MCH ([7]; 12 days after 5FU (250 mg/kg)): 9.3 pg
- MCHC ([7]; 12 days after 5FU (250 mg/kg)): 22.9 g·dL
- RDW ([7]; 12 days after 5FU (250 mg/kg)): 13.5

SMILES: CCc1ccccc1OC[C@@H](O)CN[C@H]1CCCc2ccccc21 [SR59230A]
- hematopoietic regeneration after 5FU with both β2 and β3 receptors disrupted (β3 adrenergic receptors; Adrb2-/- mice plus SR59230A): most severe impairment; also recorded: severe impairment in hematopoietic regeneration
- hematopoietic recovery after 5FU under β3 blockade (β3 adrenergic receptors; wild-type mice, SR59230A alone): sufficient to impair hematopoietic regeneration; also recorded: partially compromised hematopoietic recovery

SMILES: CC[C@]1(O)C[C@H]2CN(CCc3c([nH]c4ccccc34)[C@@](C(=O)OC)(c3cc4c(cc3OC)N(C=O)[C@H]3[C@@](O)(C(=O)OC)[C@H](OC(C)=O)[C@]5(CC)C=CCN6CC[C@]43[C@@H]65)C2)C1 [vincristine]
- BM recovery 3 months after transplantation (bone marrow [2]; mouse, in vivo): not yet completely recovered
- HSC content by competitive repopulation assays (bone marrow [2]; mouse, in vivo): reduced HSC content

Reference: US20130230580A1, “Administration of SNS Neuroprotective Agents to Promote Hematopoietic Regeneration” (priority 2010, published 2013)
